Data reported in US11149031B2, “Substituted N-(3-fluoropropyl)-pyrrolidine compounds, processes for their preparation and therapeutic uses thereof” (SANOFI, priority 2016, dated 2021).
Where two headings read alike, the source gives them in different places.

Legend:
[1] = system: MCF7 cells expressing mutant estrogen receptor Tyr 537 Ser; assay: Test B: cell proliferation/viability assay (CellTiter-Glo) on MCF7 Tyr 537 Ser mutant; type: cell-based; details: MCF7 cells expressing ER Tyr 537 Ser mutant, 7 days of compound exposure, read-out: proliferation MCF7 Y537S IC50
In short: (§1)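 CellTiter-Glo luminescence after 7-day exposure; % viability = background-corrected RLU of sample relative to untreated. MCF7 WT or ER Tyr 537 Ser/Asp 538 Gly mutant-dependent lines, phenol red-free MEM, 5% charcoal-stripped FBS; 3-0.000001 μM, 9 points.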

[2] = system: MCF7 cells expressing mutant estrogen receptor Asp 538 Gly; assay: Test B: cell proliferation/viability assay (CellTiter-Glo) on MCF7 Asp 538 Gly mutant; type: cell-based; details: MCF7 cells expressing ER Asp 538 Gly mutant, 7 days of compound exposure, read-out: proliferation MCF7 D538G IC50
In short: as §1

[3] = molecular target: His6-ERα298-554 D538G mutant (ERα ligand-binding domain) (Homo sapiens (Human), UniProt P03372, D538G); assay: Test A: biochemical antagonist activity, LanthaScreen TR-FRET ERα coactivator assay, D538G mutant; details: read-out: Antagonism D538G IC50
In short: (§2)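 His6-ERα LBD (aa 298–554), 0.5 nM, with Tb-anti-His6 antibody, 250 nM PGC1a peptide and 3 nM (or 10 nM) estradiol in pH 7.4 potassium phosphate/DTT buffer; incubated with compound overnight at room temperature. IC50 from 4-parameter logistic fit of TR-FRET 520:495 nm ratio.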

[4] = molecular target: His6-ERα298-554 WT (ERα ligand-binding domain) (Homo sapiens (Human), UniProt P03372); assay: Test A: biochemical antagonist activity, LanthaScreen TR-FRET ERα coactivator assay, WT; details: read-out: Antagonism WT IC50
In short: as §2

[5] = system: MCF7 cells (breast tumor cells) WT; assay: Test B: cell proliferation/viability assay (CellTiter-Glo) on MCF7 WT; type: cell-based; details: 7 days of compound exposure
In short: as §1

ERα in MCF7 cells = ERα in MCF7 cells (Homo sapiens (Human), UniProt P03372); assay: Test C: estrogen receptor degradation activity, ERα in cell western assay in MCF7 cells; type: cell-based; details: for DC50: 4 hours post compound addition, ERα in cell western, read-out: Degradation IC50; for % Degradation at 3 μM: 4 hours, relative to fulvestrant
In short: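 In-cell western, MCF7, 4 h compound exposure, 3–0.000018 μM final, 9 points, 1:5 steps. Formalin/Triton fix, anti-ER rabbit mAb overnight cold, Alexa 488 secondary plus 2 μM Syto-64. Green intensity = ERα, red = DNA; no-primary wells as background.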

[6] = molecular target: His6-ERα298-554 Y537S mutant (ERα ligand-binding domain) (Homo sapiens (Human), UniProt P03372, Y537S); assay: Test A: biochemical antagonist activity, LanthaScreen TR-FRET ERα coactivator assay, Y537S mutant; details: read-out: Antagonism Y537S IC50
In short: as §2

[7] = asterisk (*): protocol using 10 nM estradiol

Sequence of ERα in MCF7 cells (P03372 whole entry): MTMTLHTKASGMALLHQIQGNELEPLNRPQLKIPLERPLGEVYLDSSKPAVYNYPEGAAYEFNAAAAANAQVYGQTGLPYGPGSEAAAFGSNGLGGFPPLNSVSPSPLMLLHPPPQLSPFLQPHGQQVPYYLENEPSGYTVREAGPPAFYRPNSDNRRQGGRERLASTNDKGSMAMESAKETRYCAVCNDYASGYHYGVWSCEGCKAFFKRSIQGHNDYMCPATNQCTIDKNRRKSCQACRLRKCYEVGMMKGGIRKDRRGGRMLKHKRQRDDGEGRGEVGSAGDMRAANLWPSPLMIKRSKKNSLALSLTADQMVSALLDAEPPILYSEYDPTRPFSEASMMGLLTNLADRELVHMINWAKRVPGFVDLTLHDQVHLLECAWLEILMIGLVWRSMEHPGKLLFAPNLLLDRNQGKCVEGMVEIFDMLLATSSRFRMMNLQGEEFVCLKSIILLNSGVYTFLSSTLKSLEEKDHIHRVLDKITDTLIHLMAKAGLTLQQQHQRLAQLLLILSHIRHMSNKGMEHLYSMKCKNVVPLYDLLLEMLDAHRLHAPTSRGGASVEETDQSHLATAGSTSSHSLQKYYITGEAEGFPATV
Sequence of His6-ERα298-554 Y537S mutant (ERα ligand-binding domain) (P03372 298-554 Y537S): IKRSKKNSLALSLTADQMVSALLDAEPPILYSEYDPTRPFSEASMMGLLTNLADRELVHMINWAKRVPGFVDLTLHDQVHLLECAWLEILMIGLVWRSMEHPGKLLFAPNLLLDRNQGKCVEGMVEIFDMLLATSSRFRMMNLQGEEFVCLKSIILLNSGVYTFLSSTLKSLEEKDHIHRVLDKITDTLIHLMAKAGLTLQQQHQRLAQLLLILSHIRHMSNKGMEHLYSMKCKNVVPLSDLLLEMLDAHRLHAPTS
Sequence of His6-ERα298-554 WT (ERα ligand-binding domain) (P03372 298-554): as the sequence (P03372 298-554 Y537S) above, with S240Y counted along it
Sequence of His6-ERα298-554 D538G mutant (ERα ligand-binding domain) (P03372 298-554 D538G): as the sequence (P03372 298-554 Y537S) above, with S240Y, D241G counted along it

Row | Structure (SMILES) | IC50 ([1]; Homo sapiens, MCF7, 168 h) [nM] | IC50 ([2]; Homo sapiens, MCF7, 168 h) [nM] | IC50 [3, 7] [nM] | IC50 [4, 7] [nM] | IC50 ([5]; Homo sapiens, MCF7, 168 h) [nM] | DC50 (ERα in MCF7 cells) [nM] | % Degradation at 3 μM (ERα in MCF7 cells) [%] | IC50 [6, 7] [nM] | IC50 ([3]; protocol with 3 nM estradiol) [nM] | IC50 ([4]; protocol with 3 nM estradiol) [nM] | IC50 ([6]; protocol with 3 nM estradiol) [nM] | IC50 [1] [nM] | IC50 [2] [nM] | IC50 [5] [nM]
1 | Oc1ccc2c(c1)C(c1ccc(O[C@H]3CCN(CCCF)C3)cc1)=C(c1ccc(OC(F)(F)F)cc1)CC2 [Example 8, 8-[4-[(3S)-1-(3-fluoropropyl)pyrrolidin-3-yl]oxyphenyl]-7-[4-(trifluoromethoxy)phenyl]-5,6-dihydronaphthalen-2-ol] | > 999 | > 999 | > 4000 | 1390 | > 999 | 25 | 84 | > 4000 | – | – | – | – | – | –
2 | CCNc1ccc(C2=C(c3ccc(O[C@H]4CCN(CCCF)C4)cc3)c3ccc(O)cc3SCC2)c(F)c1 [Example 200, 4-[4-(ethylamino)-2-fluoro-phenyl]-5-[4-[(3S)-1-(3-fluoropropyl)pyrrolidin-3-yl]oxyphenyl]-2,3-dihydro-1-benzothiepin-8-ol] | 12 | 2 | 51 | 3 | 0.7 | 0.5 | 91 | 33 | – | – | – | – | – | –
3 | CCOc1cc(Cl)ccc1C1=C(c2ccc(O[C@H]3CCN(CCCF)C3)cc2)c2ccc(O)cc2SC1 [Example 43, 3-(4-chloro-2-ethoxy-phenyl)-4-[4-[(3S)-1-(3-fluoropropyl)pyrrolidin-3-yl]oxyphenyl]-2H-thiochromen-7-ol] | 11 | 1 | 1140 | 96 | 0.4 | 0.8 | 97 | 673 | – | – | – | – | – | –
4 | Oc1ccc2c(c1)OCCC(c1ccc3occc3c1)=C2c1ccc(O[C@H]2CCN(CCCF)C2)cc1 [Example 120, 4-(benzofuran-5-yl)-5-[4-[(3S)-1-(3-fluoropropyl)pyrrolidin-3-yl]oxyphenyl]-2,3-dihydro-1-benzoxepin-8-ol] | 10 | 2 | – | – | 1 | 0.7 | 91 | – | 7 | 2 | 4 | – | – | –
5 | CC/C(=C(/c1ccc(O[C@H]2CCN(CCCF)C2)cc1)c1ccc2[nH]ncc2c1)c1ccc(F)cc1Cl [Example 255, 5-[(E)-2-(2-chloro-4-fluoro-phenyl)-1-[4-[(3S)-1-(3-fluoropropyl)pyrrolidin-3-yl]oxyphenyl]but-1-enyl]-1H-indazole] | 6 | 0.9 | 190 | 15 | 0.1 | 0.6 | 92 | 140 | – | – | – | – | – | –
6 | COc1ccc(C2=C(c3ccc(O[C@H]4CCN(CCCF)C4)cc3)c3ccc(O)cc3SC2)c(F)n1 [Example 45, 3-(2-fluoro-6-methoxy-3-pyridyl)-4-[4-[(3S)-1-(3-fluoropropyl)pyrrolidin-3-yl]oxyphenyl]-2H-thiochromen-7-ol] | 2 | 0.6 | 34 | 1 | 0.1 | 0.2 | 87 | 14 | – | – | – | – | – | –
7 | Cc1ccc(C2=C(c3cnc(O[C@H]4CCN(CCCF)C4)nc3)c3ccc(O)cc3CCC2)c(F)c1 [Example 244, 6-(2-fluoro-4-methyl-phenyl)-5-[2-[(3S)-1-(3-fluoropropyl)pyrrolidin-3-yl]oxypyrimidin-5-yl]-8,9-dihydro-7H-benzo[7]annulen-2-ol] | 6 | 2 | 67 | 3 | 0.9 | 0.4 | 92 | 34 | – | – | – | – | – | –
8 | CC1Cc2c([nH]c3ccccc23)C(c2c(F)cc(O[C@H]3CCN(CCCF)C3)cc2F)N1CC(C)(C)F (single isomer, unassigned) [Example 257] | – | – | > 4000 | 3310 | – | 37 | 87 | > 4000 | – | – | – | 272 | 85 | 18
9 | Oc1ccc2c(c1)CCCC(c1ccc(Cl)cc1Cl)=C2c1ccc(O[C@H]2CCN(CCCF)C2)nc1 [Example 239, 6-(2,4-dichlorophenyl)-5-[6-[(3S)-1-(3-fluoropropyl)pyrrolidin-3-yl]oxy-3-pyridyl]-8,9-dihydro-7H-benzo[7]annulen-2-ol] | 3 | 1 | 13 | 13 | 0.3 | 0.6 | 87 | 9 | – | – | – | – | – | –
10 | Oc1ccc2c(c1)SCC(c1ccc(OC(F)F)c(F)c1)=C2c1ccc(O[C@H]2CCN(CCCF)C2)cc1 [Example 30, 3-[4-(difluoromethoxy)-3-fluoro-phenyl]-4-[4-[(3S)-1-(3-fluoropropyl)pyrrolidin-3-yl]oxyphenyl]-2H-thiochromen-7-ol] | 16 | 2 | – | – | 1 | 1 | 91 | – | 694 | 34 | 415 | – | – | –
11 | Cc1ccc(C2=C(c3ccc(O[C@H]4CCN(CCCF)C4)cc3)c3ccc(O)c(F)c3OCC2)c(F)c1 [Example 106, 9-fluoro-4-(2-fluoro-4-methyl-phenyl)-5-[4-[(3S)-1-(3-fluoropropyl)pyrrolidin-3-yl]oxyphenyl]-2,3-dihydro-1-benzoxepin-8-ol] | 12 | 3 | – | – | 0.7 | 0.5 | 90 | – | 31 | 5 | 16 | – | – | –
12 | CCOc1ccc(C2=C(c3cnc(O[C@H]4CCN(CCCF)C4)nc3)c3ccc(O)cc3CCC2)c(F)n1 [Example 251, 6-(6-ethoxy-2-fluoro-3-pyridyl)-5-[2-[(3S)-1-(3-fluoropropyl)pyrrolidin-3-yl]oxypyrimidin-5-yl]-8,9-dihydro-7H-benzo[7]annulen-2-ol] | 5 | 0.5 | 104 | 4 | 0.4 | 0.5 | 89 | 57 | – | – | – | – | – | –
13 | CC(C)Oc1ccc(C2=C(c3ccc(O[C@H]4CCN(CCCF)C4)cc3)c3ccc(O)cc3OCC2)cc1F [Example 141, 4-(3-fluoro-4-isopropoxy-phenyl)-5-[4-[(3S)-1-(3-fluoropropyl)pyrrolidin-3-yl]oxyphenyl]-2,3-dihydro-1-benzoxepin-8-ol] | 22 | 4 | – | – | 1 | 2 | 87 | – | 1500 | 23 | 1120 | – | – | –
14 | CCOc1cc(F)c(C2=C(c3ccc(O[C@H]4CCN(CCCF)C4)cc3)c3ccc(O)cc3SCC2)cc1F [Example 220, 4-(4-ethoxy-2,5-difluoro-phenyl)-5-[4-[(3S)-1-(3-fluoropropyl)pyrrolidin-3-yl]oxyphenyl]-2,3-dihydro-1-benzothiepin-8-ol] | 5 | 0.5 | 164 | 8 | 0.4 | 0.2 | 89 | 84 | – | – | – | – | – | –
15 | Oc1ccc2c(c1)CCCC(c1ccc(Cl)cc1Cl)=C2c1cnc(O[C@H]2CCN(CCCF)C2)nc1 [Example 238, 6-(2,4-dichlorophenyl)-5-[2-[(3S)-1-(3-fluoropropyl)pyrrolidin-3-yl]oxypyrimidin-5-yl]-8,9-dihydro-7H-benzo[7]annulen-2-ol] | 3 | 0.5 | 59 | 3 | 0.3 | 0.5 | 87 | 33 | – | – | – | – | – | –
16 | Oc1ccc2c(c1)SCCC(c1ccc3cc[nH]c3c1)=C2c1ccc(O[C@H]2CCN(CCCF)C2)cc1 [Example 172, 5-[4-[(3S)-1-(3-fluoropropyl)pyrrolidin-3-yl]oxyphenyl]-4-(1H-indol-6-yl)-2,3-dihydro-1-benzothiepin-8-ol] | 12 | 2 | – | – | 0.2 | 0.4 | 87 | – | 24 | 6 | 18 | – | – | –
